Values quoted from earlier work as cited in patent US20220288358A1, “Drug-Coated Balloon Controllable In Drug Metabolism And Preparation Method Therefor” (Shanghai HeartCare Medical Technology Corporation Limited, priority 2019, published 2022).
Entries after “also recorded” stand apart in the source; their conditions may differ.

Molecular target: FKBP12 protein (Homo sapiens, UniProt P62942)
Conditions: rank order from strong to weak; stated without data

Chain of FKBP12 protein (P62942 whole entry, species assumed): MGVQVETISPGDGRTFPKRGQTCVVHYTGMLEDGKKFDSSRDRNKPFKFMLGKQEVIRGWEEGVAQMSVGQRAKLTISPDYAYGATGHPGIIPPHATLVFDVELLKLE

Structure (SMILES): CCC(C)(C)C(=O)C(=O)N1CCC[C@H]1C(=O)OCCCc1cccnc1 [drug a, 3-pyridin-3-ylpropyl-(2 S)-1-(3,3-dimethyl-2-oxo-pentanoyl)-pyrrolidine-2-carboxylate]
- ability to bind FKBP12 protein: from strong to weak is drug c, drug b, and drug a

Structure (SMILES): CCOC(=O)[C@H](CC(C)C)NC(=O)[C@@H]1CSCCN1S(=O)(=O)c1ccc(C)cc1 [drug b, (3R)-4-(p-Toluenesulfonyl)-1,4-thiazane-3-carboxylicacid-L-leucine ethyl ester]
- ability to bind FKBP12 protein: from strong to weak is drug c, drug b, and drug a

Structure (SMILES): Cc1ccc(S(=O)(=O)N2CCSC[C@H]2C(=O)N[C@@H](Cc2ccccc2)C(=O)OCc2ccccc2)cc1 [drug c, (3R)-4-(p-Toluenesulfonyl)-1,4-thiazane-3-carboxylic acid-L-phenylalanine benzyl ester]
- ability to bind FKBP12 protein: stronger than that of drug a; also recorded: from strong to weak is drug c, drug b, and drug a
